Literature values, collected in patent publication US20230338288A1, “ASYMMETRIC CHARGED VESICLES AND METHODS OF PREPARING AND USE THEREOF” (The Research Foundation for the State University of New York, priority 2020, published 2023).

Conditions: compared with Doxil (liposome-encapsulated Dox)

## COc1cccc2c1C(=O)c1c(O)c3c(c(O)c1C2=O)C[C@@](O)(C(=O)CO)C[C@@H]3O[C@H]1C[C@H](N)[C@H](O)[C@H](C)O1 [Dox, Doxorubicin]
  dose that can be delivered without exhibiting cardiotoxicity, fold less than with Doxil: 10-50 fold
